Assay results reported in US20230135215A1, “COMPOUNDS AS CDK2/4/6 INHIBITORS” (Fochon Biosciences, Ltd., priority 2020, published 2023).
pIC50: −log10 of the molar value.

Tests used:
HCC1806 cells = test: Cell proliferation assay (MTS), HCC1806 (CDK4/6 independent) cells; format: cell-based; details: Homo sapiens, HCC1806 (CDK4/6 independent) cell proliferation inhibition, 120 h incubation, absorbance 490 nm
Excerpt: (§1) MTS testing kit was purchased from Promega (Madison, Wis., USA). The RPMI-1640, DMEM, Fetal bovine serum and Penicillin-Streptomycin were purchased from BI (Biological Industries, Beit Haemek, Israel). Dimethyl sulfoxide (DMSO) was purchased from Sigma (St. Louis, Mo., USA).
(§2) To investigate whether a compound is able to inhibit the activity of CDK2/4/6 in cells, we developed a mechanism-based assay using HCC1806 (CDK4/6 independent) and Hs68 (CDK4/6 dependent) cell lines. In this assay, inhibition of CDK2/4/6 was detected by the cell proliferation inhibition of HCC1806 and Hs68 cells. HCC806 and HS68 cells cultured in PRMI-1640 and DMEM supplemented with 10% fetal bovine serum respectively to 40-80% confluence were collected and plated into 96-well plates at desired cell density of 5×10^3/mL. Plates were incubated at 37° C., with 5% CO2 for 24 h. Compounds were serially diluted and added to the plates with the final concentrations as 10000, 3333.3, 1111.1, 370.4, 123.5, 41.2, 13.7, 4.6 and 1.5 nM. Plates were incubated at 37° C., with 5% CO2 for 120 h. A mixture of 20 μl MTS/100 μl medium were added to each well and the plates were incubated at 37° C., with 5% CO2 for exactly 2 h. The absorbance was measured by a microplate reader at 490 nm. IC50 was calculated using GraphPad Prism 5.0 software.

Hs68 cells = test: Cell proliferation assay (MTS), Hs68 (CDK4/6 dependent) cells; format: cell-based; details: Homo sapiens, Hs68 (CDK4/6 dependent) cell proliferation inhibition, 120 h incubation, absorbance 490 nm
Excerpt: as §1, §2

| SMILES | pIC50 (HCC1806 cells) | pIC50 (Hs68 cells) |
| --- | --- | --- |
| CS(=O)(=O)N1CCC(Nc2ncc3ccc(=O)n(C4CCCC45CC5)c3n2)CC1 (stereo not drawn) [Example 1, 2-((1-(Methylsulfonyl)piperidin-4-yl)amino)-8-(spiro[2,4]heptan-4-yl)pyrido[2,3-d]pyrimidin-7(8H)-one] | 6.42 | 6.50 |
| CS(=O)(=O)N1CCC(Nc2ncc3cc(C(F)F)c(=O)n([C@@H]4CCCC45CC5)c3n2)CC1 [Example 19, (R)-6-(difluoromethyl)-2-((1-(methyl-sulfonyl)piperidin-4-yl)amino)-8-(spiro[2.4]heptan-4-yl)pyrido[2,3-d]pyrimidin-7(8H)-one] | 6.86 | – |
| CS(=O)(=O)N1CCC(Nc2ncc3cc(F)c(=O)n(C4CCCC45CC5)c3n2)CC1 (stereo not drawn) [Example 22, 6-fluoro-2-((1-(methylsulfonyl)piperidin-4-yl)amino)-8-(spiro[2.4]heptan-4-yl) pyrido[2,3-d]pyrimidin-7(8H)-one] | 6.50 | – |
| CS(=O)(=O)N1CCC(Nc2ncc3ccc(=O)n([C@H]4CCCC45CC5)c3n2)CC1 [Example 24, (S)-2-((1-(methylsulfonyl)piperidin-4-yl)amino)-8-(spiro[2.4]heptan-4-yl)pyrido[2,3-d]pyrimidin-7(8H)-one] | 7.11 | 6.36 |
| CS(=O)(=O)N1CCC(Nc2ncc3cc(C(F)F)c(=O)n(C4CCCC45CC5)c3n2)CC1 (stereo not drawn) [Example 18, 6-(difluoromethyl)-2-((1-(methylsulfonyl)piperidin-4-yl)amino)-8-(spiro[2.4]heptan-4-yl)pyrido[2,3-d]pyrimidin-7(8H)-one] | 6.63 | – |
| NS(=O)(=O)N1CCC(Nc2ncc3ccc(=O)n([C@H]4CCCC45CC5)c3n2)CC1 [Example 30, (S)-4-((7-oxo-8-(spiro[2.4]heptan-4-yl)-7,8-dihydropyrido[2,3-d]pyrimidin-2-yl)amino)piperidine-1-sulfonamide] | 6.39 | – |
| CNS(=O)(=O)N1CCC(Nc2ncc3ccc(=O)n([C@H]4CCCC45CC5)c3n2)CC1 [Example 31, (S)-N-methyl-4-((7-oxo-8-(spiro[2.4]heptan-4-yl)-7,8-dihydropyrido[2,3-d]pyrimidin-2-yl)amino)piperidine-1-sulfonamide] | 6.93 | 6.38 |
| CS(=O)(=O)N1CCC(Nc2ncc3cc(C(F)F)c(=O)n([C@H]4CCCC45CC5)c3n2)CC1 [Example 20, (S)-6-(difluoromethyl)-2-((1-(methylsulfonyl)piperidin-4-yl)amino)-8-(spiro[2.4]heptan-4-yl)pyrido[2,3-d]pyrimidin-7(8H)-one] | 6.68 | – |
| Cc1cc2cnc(NC3CCN(S(C)(=O)=O)CC3)nc2n(C2CCCC23CC3)c1=O (stereo not drawn) [Example 2, 6-Methyl-2-((1-(methylsulfonyl)piperidin-4-yl)amino)-8-(spiro[2,4]heptan-4-yl)pyrido[2,3-d]pyrimidin-7(8H)-one] | – | 6.49 |
| CS(=O)(=O)N1CCC(Nc2ncc3cc(Cl)c(=O)n(C4CCCC45CC5)c3n2)CC1 (stereo not drawn) [Example 7, 6-Chloro-2-((1-(methylsulfonyl)piperidin-4-yl)amino)-8-(spiro[2,4]heptan-4-yl)pyrido[2,3-d]pyrimidin-7(8H)-one] | 6.51 | 6.63 |
| CS(=O)(=O)N1CCC(Nc2ncc3cc(Br)c(=O)n(C4CCCC45CC5)c3n2)CC1 (stereo not drawn) [Example 8, 6-Bromo-2-((1-(methylsulfonyl)piperidin-4-yl)amino)-8-(spiro[2,4]heptan-4-yl)pyrido[2,3-d]pyrimidin-7(8H)-one] | 6.52 | 6.98 |
| CS(=O)(=O)N1CCC(Nc2ncc3ccc(=O)n([C@@H]4CCCC45CC5)c3n2)CC1 [Example 23, (R)-2-((1-(methylsulfonyl)piperidin-4-yl)amino)-8-(spiro[2.4]heptan-4-yl)pyrido[2,3-d]pyrimidin-7(8H)-one] | 6.82 | 6.31 |
